Data reported in ChEMBL document CHEMBL1147590, “Synthesis and antitumor activity of s-tetrazine derivatives” (Bioorg Med Chem Lett, 2004).

What was measured:
[1] = tested on: A549; experiment: In vitro rate of inhibition of A-549 tumor cell growth at 10E-6 mol/L; assay type: functional, Homo sapiens; details: at 1 µM
[2] = tested on: P388; experiment: In vitro rate of inhibition of P388 tumor cell growth at 10E-4 mol/L; assay type: functional, Mus musculus; details: at 100 µM
[3] = tested on: P388; experiment: In vitro rate of inhibition of P388 tumor cell growth at 10E-8 mol/L; assay type: functional, Mus musculus; details: at 0.01 µM
[4] = tested on: P388; experiment: In vitro rate of inhibition of P388 tumor cell growth at 10E-5 mol/L; assay type: functional, Mus musculus; details: at 10 µM
[5] = tested on: A549; experiment: In vitro rate of inhibition of A-549 tumor cell growth at 10E-4 mol/L; assay type: functional, Homo sapiens; details: at 100 µM
[6] = tested on: A549; experiment: In vitro rate of inhibition of A-549 tumor cell growth at 10E-5 mol/L; assay type: functional, Homo sapiens; details: at 10 µM
[7] = tested on: A549; experiment: In vitro rate of inhibition of A-549 tumor cell growth at 10E-7 mol/L; assay type: functional, Homo sapiens; details: at 0.1 µM
[8] = tested on: P388; experiment: In vitro rate of inhibition of P388 tumor cell growth at 10E-7 mol/L; assay type: functional, Mus musculus; details: at 0.1 µM
[9] = tested on: A549; experiment: In vitro rate of inhibition of A-549 tumor cell growth at 10E-8 mol/L; assay type: functional, Homo sapiens; details: at 0.01 µM
[10] = tested on: P388; experiment: In vitro rate of inhibition of P388 tumor cell growth at 10E-6 mol/L; assay type: functional, Mus musculus; details: at 1 µM

Compound	Rate of inhibition [1] [%]	Rate of inhibition [2] [%]	Rate of inhibition [3] [%]	Rate of inhibition [4] [%]	Rate of inhibition [5] [%]	Rate of inhibition [6] [%]	Rate of inhibition [7] [%]	Rate of inhibition [8] [%]	Rate of inhibition [9] [%]	Rate of inhibition [10] [%]
CC1=NN(C(=O)Nc2ccccc2C)C(C)=NN1C(=O)Nc1ccccc1C	0	82.8	0	18.8	80	0	0	0	0	1.6
CC1=NN(C(=O)NCc2ccccc2)C(C)=NN1C(=O)NCc1ccccc1	81.8	92.8	19.6	57.5	64.4	82.3	32	22	14.1	50.3
c1ccc(Cc2nnc(Cc3ccccc3)nn2)cc1	4.3	51	0	15.6	66.8	61.7	0	4.6	0	18.5
CC1=NN(C(=O)Nc2cccc(Cl)c2)C(C)=NN1C(=O)Nc1cccc(Cl)c1	0	85.9	0	29.7	21.2	7.6	0	0	0	6.3
FC(F)(F)c1ccc(-c2nnc(-c3ccc(C(F)(F)F)cc3)nn2)cc1	0	51.5	9.7	44.4	40.2	2.5	0	19.5	0	33
CCOC(=O)c1cccc(NC(=O)N2N=C(C)N(C(=O)Nc3cccc(C(=O)OCC)c3)N=C2C)c1	6.8	46.3	0	0	67	12.5	5.7	0	1.1	0
COc1cccc(NC(=O)N2N=C(C)N(C(=O)Nc3cccc(OC)c3)N=C2C)c1	84.6	95.3	92.2	93.8	87.7	86.2	89.2	95.2	86.2	93.8
COc1cc(NC(=O)N2N=C(C)N(C(=O)Nc3cc(OC)cc(OC)c3)N=C2C)cc(OC)c1	77.3	94.4	73.1	88.8	87.5	79.3	75	90.7	26.1	88.9
CCC1=NN(C(=O)Nc2cccc(C)c2)C(CC)=NN1C(=O)Nc1cccc(C)c1	81.1	91.6	0	63.5	90.4	84.1	16.7	0	1.6	0
CCCCCCCCCCCCC/C=C/[C@@H](O)[C@H](CO)NC(C)=O	6.2	73.4	0	4.7	24.6	9.2	7.7	3.1	12.3	3.1
CC1=NN(C(=O)Nc2cccc3ccccc23)C(C)=NN1C(=O)Nc1cccc2ccccc12	9.1	60.5	0	6.3	56.6	16.9	10	0	4.4	0
CCC1NN(C(C)=O)C(CC)NN1C(C)=O (stereo not given)	10.1	38.9	0	0	47.5	9.7	2.9	0	0	0
CC1=NN(C(=O)Nc2cccc(C(F)(F)F)c2)C(C)=NN1C(=O)Nc1cccc(C(F)(F)F)c1	8.9	73	0	28.6	39.3	10.7	10.7	0	16.1	9.5
CCCC1=NNC(CCC)N=N1 (stereo not given)	0	42.2	0	0	61.7	0.5	0	0	0	0
CC1=NN(C(=O)NC2CCCCC2)C(C)=NN1C(=O)NC1CCCCC1	0	72.6	0	0	58.9	3.5	0	0	0	0
CCCC1=NN(C(=O)OCCC(C)C)C(CCC)N=N1 (stereo not given)	0	83.5	9.9	14.3	89.4	0	0	7.3	0	6.9
COc1ccc(NC(=O)N2N=C(C)N(C(=O)Nc3ccc(OC)cc3)N=C2C)cc1	0	73	0	36.5	24.2	0.9	0	6.3	0	14.3
CC1=NN(C(=O)Nc2cc(Cl)cc(Cl)c2)C(C)=NN1C(=O)Nc1cc(Cl)cc(Cl)c1	0	30.6	0	5.9	42	0	0	0	0	1.9
CC1=NN(C(=O)Nc2ccccc2Cl)C(C)=NN1C(=O)Nc1ccccc1Cl	0	90.5	0	41.3	28.8	0	0	0	0	1.6
CCCC1NN(C(C)=O)C(CCC)NN1C(C)=O (stereo not given)	4	38.5	0	5.5	59.8	8.6	1.2	3.1	0	3.2
CC(C)C(=O)N1N=C(c2ccccc2)NN=C1c1ccccc1	38.7	82.5	46.9	61.1	83.8	46.6	29.6	24.9	29.5	52
Clc1ccccc1-c1nnc(-c2ccccc2Cl)nn1 [CLOFENTEZINE]	0	8.2	12.6	2.8	0	0	0	14.6	0	5.6
Cc1ccc(-c2nnc(-c3ccc(C)cc3)nn2)cc1	0	56.4	4.5	8.3	90.3	17	0	2.4	0	4.4
CC(=O)N1NC(C)N(C(C)=O)NC1C (stereo not given)	3.6	14.5	0	0.1	68.5	6	7.4	0	3.2	4.3
